Read-outs that look alike come from different tables or passages of the source.
What was measured:
[1] = cited from earlier work
[2] = Plasma pharmacokinetics, Cycle 1; type: in vivo, patients
[3] = tested on: NRAS- and BRAF-mutant melanoma; conditions: single agent, cited from earlier work
[4] = cited from earlier work; remark: listed apart in the source
ovarian cancer = conditions: single agent, irrespective of BRAF or KRAS status; cited from earlier work

Cn1cnc2c(F)c(Nc3ccc(Br)cc3F)c(C(=O)NOCCO)cc21 [binimetinib]
MTD, single agent [1]: 60 mg b.i.d. | mean AUCtau ([1]; single-agent phase I study, same dosing schedule): 1,740 ng•hour/mL | AUC ([2]; human, plasma, oral, mean AUCtau, binimetinib 45 mg b.i.d. and buparlisib 80 mg q.d.): 2670 ng·h/mL | Effect of buparlisib on PK of binimetinib ([2]; in vivo): not altered by buparlisib | Objective response rate ([3]; BRAF-mutant melanoma): 6% | Objective response rate ([3]; NRAS-mutant melanoma): 11%

Nc1cc(C(F)(F)F)c(-c2cc(N3CCOCC3)nc(N3CCOCC3)n2)cn1 [buparlisib]
MTD, single agent [4]: 100 mg once daily (q.d.) | AUCtau ([4]; single-agent study): 15,413 ng•hour/mL | Cmax ([4]; single-agent study): 1,098 ng/mL | AUC ([2]; human, plasma, oral, AUCtau, present study, combination at RP2D): 11700 ng·h/mL | Cmax ([2]; human, plasma, oral, Cmax, present study, combination at RP2D): 764 ng/mL | Reduction of Cmax and AUCtau when combined with binimetinib ([2]; in many patients, versus single-agent data): > 50%

Cn1cnc2c(F)c(Nc3ccc(Br)cc3Cl)c(C(=O)NOCCO)cc21 [selumetinib]
Response rate (ovarian cancer): 15%

Reference: PMC6964137 (The Oncologist, 2019)
